# Test results: US10925876B2, “Methods for using triazolo-pyrazinyl soluble guanylate cyclase activators in fibrotic disorders” (Merck Sharp & Dohme Corp., priority 2016, dated 2021)
# Target: T1, sGC α1/β1 heterodimer (Homo sapiens, UniProt Q02108+Q02153)
# T1 construct: expressed in transfected cells
# T1 sequence (Q02108 1-690): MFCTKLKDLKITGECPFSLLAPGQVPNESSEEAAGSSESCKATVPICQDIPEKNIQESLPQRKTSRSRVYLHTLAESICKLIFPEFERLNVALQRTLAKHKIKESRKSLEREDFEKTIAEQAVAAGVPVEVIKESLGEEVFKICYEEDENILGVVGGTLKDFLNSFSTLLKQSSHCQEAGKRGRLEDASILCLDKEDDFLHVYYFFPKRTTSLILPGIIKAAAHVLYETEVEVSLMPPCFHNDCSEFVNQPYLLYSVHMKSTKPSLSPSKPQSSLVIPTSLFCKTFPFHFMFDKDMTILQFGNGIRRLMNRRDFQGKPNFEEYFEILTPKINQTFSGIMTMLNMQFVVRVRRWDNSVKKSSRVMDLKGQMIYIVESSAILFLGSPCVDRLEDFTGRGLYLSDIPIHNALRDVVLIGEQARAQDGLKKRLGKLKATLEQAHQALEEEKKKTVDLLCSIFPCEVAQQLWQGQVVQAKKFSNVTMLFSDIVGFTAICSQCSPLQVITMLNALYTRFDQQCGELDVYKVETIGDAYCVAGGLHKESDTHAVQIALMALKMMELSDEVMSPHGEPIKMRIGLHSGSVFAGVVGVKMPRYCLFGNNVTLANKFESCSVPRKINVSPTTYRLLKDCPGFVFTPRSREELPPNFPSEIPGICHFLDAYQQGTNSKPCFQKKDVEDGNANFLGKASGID
# T1 sequence (Q02153 1-619): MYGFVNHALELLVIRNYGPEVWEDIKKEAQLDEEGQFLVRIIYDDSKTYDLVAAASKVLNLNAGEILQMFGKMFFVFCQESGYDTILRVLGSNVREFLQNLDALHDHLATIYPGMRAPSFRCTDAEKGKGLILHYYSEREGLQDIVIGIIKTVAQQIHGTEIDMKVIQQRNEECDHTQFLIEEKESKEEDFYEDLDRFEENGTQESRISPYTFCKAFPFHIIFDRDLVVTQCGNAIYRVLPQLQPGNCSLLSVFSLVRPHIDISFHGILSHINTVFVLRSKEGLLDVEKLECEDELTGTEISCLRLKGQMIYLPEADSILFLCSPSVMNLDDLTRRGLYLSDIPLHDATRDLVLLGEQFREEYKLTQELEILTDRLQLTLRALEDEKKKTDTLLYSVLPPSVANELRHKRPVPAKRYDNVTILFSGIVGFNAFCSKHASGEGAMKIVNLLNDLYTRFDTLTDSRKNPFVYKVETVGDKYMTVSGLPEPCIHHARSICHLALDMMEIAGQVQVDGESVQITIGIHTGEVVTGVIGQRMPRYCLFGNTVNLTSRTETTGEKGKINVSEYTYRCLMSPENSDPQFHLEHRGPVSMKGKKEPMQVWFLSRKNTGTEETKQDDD
# Test: Cell-Based sGC Functional Assay (CASA Assay), cGMP generation in CHO-K1/sGC cells;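 note: reference Compound A is a published heme-dependent sGC activator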
# Conditions: maximum cGMP production of Compound A set to 100% activation, read-out: % Act. (percent activation relative to Compound A)
# Outline: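 Intracellular cGMP quantified by HTRF competition after 1 h, 37 °C compound exposure, with or without 1 μM DETA-NO, in stable CHO-K1/sGC α1/β1 cells (4×10^5/mL; buffer with 0.5 mM IBMX, 5 mM MgCl2, 10 mM HEPES, 0.05% BSA; 2.5% DMSO). Activation normalized to reference Compound A maximum; 4P fit.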
row,Emax [%],Structure (SMILES)
1,158,"CCCCc1nc(-c2nc(N)c3c(n2)NC(=O)C3(C)c2ccc(Cl)cn2)cn2ncnc12 (stereo not drawn) [Example 69A, 4-amino-2-(8-butyl-[1,2,4]triazolo[1,5-a]pyrazin-6-yl)-5-(5-chloropyridin-2-yl)-5-methyl-5H-pyrrolo[2,3-d]pyrimidin-6(7H)-one]"
2,118,"CCCCc1nc(-c2nc(N)c3c(n2)NC(=O)C3(C)c2ccc(C)cn2)cn2ncnc12 (stereo not drawn) [Example 71B, 4-amino-2-(8-butyl-[1,2,4]triazolo[1,5-a]pyrazin-6-yl)-5-methyl-5-(5-methylpyridin-2-yl)-5H-pyrrolo[2,3-d)pyrimidin-6(7H)-one]"
3,136,"CC1(c2ccc(Cl)c(F)c2)C(=O)Nc2nc(-c3cn4ncnc4c(CCC(F)(F)F)n3)nc(N)c21 (stereo not drawn) [Example 75B, 4-amino-5-(4-chloro-3-fluorophenyl)-5-methyl-2-(8-(3,3,3-trifluoropropyl)-[1,2,4]triazolo[1,5-a]pyrazin-6-yl)-5H-pyrrolo[2,3-d]pyrimidin-6(7H)-one]"
4,115,"CC1(c2ccc(F)cn2)C(=O)Nc2nc(-c3cn4ncnc4c(CCC(F)(F)F)n3)nc(N)c21 (stereo not drawn) [Example 81B, 4-amino-5-(5-fluoropyridin-2-yl)-5-methyl-2-(8-(3,3,3-trifluoropropyl)-[1,2,4]triazolo[1,5-a]pyrazin-6-yl)-5H-pyrrolo[2,3-d]pyrimidin-6(7H)-one]"
5,101,"CC1(c2ccc(F)c(F)c2)C(=O)Nc2nc(-c3cn4ncnc4c(CCC(F)(F)F)n3)nc(N)c21 (stereo not drawn) [Example 84B, 4-amino-5-(3,4-difluorophenyl)-5-methyl-2-(8-(3,3,3-trifluoropropyl)-[1,2,4]triazolo[1,5-a]pyrazin-6-yl)-5H-pyrrolo[2,3-d]pyrimidin-6(7H)-one]"
6,126,"COc1cccc(Cc2nc(-c3nc(N)c4c(n3)NC(=O)[C@@]4(C)c3ccc(F)cc3)cn3ncnc23)c1 [Example 86B, (S)-4-amino-5-(4-fluorophenyl)-2-(8-(3-methoxybenzyl)-[1,2,4]triazolo[1,5-a]pyrazin-6-yl)-5-methyl-5H-pyrrolo[2,3-d]pyrimidin-6(7H)-one]"
7,138,"Cc1nc2c(Cc3ccc(F)cc3)nc(-c3nc(N)c4c(n3)NC(=O)[C@@]4(C)c3ccc(F)cc3)cn2n1 [Example 87B, (S)-4-amino-2-(8-(4-fluorobenzyl)-2-methyl-[1,2,4]triazolo[1,5-a]pyrazin-6-yl)-5-(4-fluorophenyl)-5-methyl-5H-pyrrolo[2,3-d]pyrimidin-6(7H)-one]"
8,109,"Cc1nc2c(CCC(F)(F)C(F)(F)F)nc(-c3nc(N)c4c(n3)NC(=O)C4(C)c3ccc(F)cn3)cn2n1 (stereo not drawn) [Example 89B, 4-amino-5-(5-fluoropyridin-2-yl)-5-methyl-2-(2-methyl-8-(3,3,4,4,4-pentafluorobutyl)-[1,2,4]triazolo[1,5-a]pyrazin-6-yl)-5H-pyrrolo[2,3-d]pyrimidin-6(7H)-one]"
9,135,"Cc1nc2c(CCC(F)(F)C(F)(F)F)nc(-c3nc(N)c4c(n3)NC(=O)C4(C)c3ccc(Cl)c(F)c3)cn2n1 (stereo not drawn) [Example 90B, 4-amino-5-(4-chloro-3-fluorophenyl)-5-methyl-2-(2-methyl-8-(3,3,4,4,4-pentafluorobutyl)-[1,2,4]triazolo[1,5-a]pyrazin-6-yl)-5H-pyrrolo[2,3-d]pyrimidin-6(7H)-one]"
10,105,"CCCc1nc(-c2nc(N)c3c(n2)NC(=O)[C@@]3(C)c2ccc(F)cc2)cn2nc(C)nc12 [Example 91A, (S)-4-amino-5-(4-fluorophenyl)-5-methyl-2-(2-methyl-8-propyl-[1,2,4]triazolo[1,5-a]pyrazin-6-yl)-5,7-dihydro-6H-pyrrolo[2,3-d]pyrimidin-6-one]"
11,167,"CCCc1nc(-c2nc(N)c3c(n2)NC(=O)C3(C)c2ccc(F)cn2)cn2nc(C)nc12 (stereo not drawn) [Example 92B, 4-amino-5-(5-fluoropyridin-2-yl)-5-methyl-2-(2-methyl-8-propyl-[1,2,4]triazolo[1,5-a]pyrazin-6-yl)-5H-pyrrolo[2,3-d]pyrimidin-6(7H)-one]"
12,159,"CCCc1nc(-c2nc(N)c3c(n2)NC(=O)C3(C)c2ccc(Cl)cc2)cn2nc(C)nc12 (stereo not drawn) [Example 93A, 4-amino-5-(4-chlorophenyl)-5-methyl-2-(2-methyl-8-propyl-[1,2,4]triazolo[1,5-a]pyrazin-6-yl)-5H-pyrrolo[2,3-d]pyrimidin-6(7H)-one]"

# More lines, now with the values behind:
row,Structure (SMILES),Emax [%]
1,"CCCCc1nc(-c2nc(N)c3c(n2)NC(=O)C3(c2ccc(C(F)(F)F)cn2)C2CC2)cn2ncnc12 (stereo not drawn) [Example 70A, 4-amino-2-(8-butyl-[1,2,4]triazolo[1,5-a]pyrazin-6-yl)-5-cyclopropyl-5-(5-(trifluoromethyl)pyridin-2-yl)-5H-pyrrolo[2,3-d]pyrimidin-6(7H)-one]",133
2,"Nc1nc(-c2cn3ncnc3c(CCC(F)(F)F)n2)nc2c1C(c1ccc(C(F)(F)F)cn1)(C1CC1)C(=O)N2 (stereo not drawn) [Example 80A, 4-amino-5-cyclopropyl-5-(5-(trifluoromethyl)pyridin-2-yl)-2-(8-(3,3,3-trifluoropropyl)-[1,2,4]triazolo[1,5-a]pyrazin-6-yl)-5H-pyrrolo[2,3-d]pyrimidin-6(7H)-one]",115
3,"Nc1nc(-c2cn3ncnc3c(CCC(F)(F)F)n2)nc2c1C(c1ccc(Cl)cn1)(C1CC1)C(=O)N2 (stereo not drawn) [Example 82A, 4-amino-5-(5-chloropyridin-2-yl)-5-cyclopropyl-2-(8-(3,3,3-trifluoropropyl)-[1,2,4]triazolo[1,5-a]pyrazin-6-yl)-5H-pyrrolo[2,3-d]pyrimidin-6(7H)-one]",125
4,"Nc1nc(-c2cn3ncnc3c(CCC(F)(F)F)n2)nc2c1C(c1ccc(F)c(F)c1)(C1CC1)C(=O)N2 (stereo not drawn) [Example 83A, 4-amino-5-cyclopropyl-5-(3,4-difluorophenyl)-2-(8-(3,3,3-trifluoropropyl)-[1,2,4]triazolo[1,5-a]pyrazin-6-yl)-5H-pyrrolo[2,3-d]pyrimidin-6(7H)-one]",100
5,"Nc1nc(-c2cn3ncnc3c(CCC(F)(F)C(F)(F)F)n2)nc2c1C(c1cn(C3CC3)nn1)(C1CC1)C(=O)N2 (stereo not drawn) [Example 96B, 4-amino-5-cyclopropyl-5-(1-cyclopropyl-1H-1,2,3-triazol-4-yl)-2-(8-(3,3,4,4,4-pentafluorobutyl)-[1,2,4]triazolo[1,5-a]pyrazin-6-yl)-5H-pyrrolo[2,3-d]pyrimidin-6(7H)-one]",108
6,"CC1(c2nnc(C3CC3)o2)C(=O)Nc2nc(-c3cn4ncnc4c(CCCC(F)(F)F)n3)nc(N)c21 (stereo not drawn) [Example 99A, 4-amino-5-(5-cyclopropyl-1,3,4-oxadiazol-2-yl)-5-methyl-2-(8-(4,4,4-trifluorobutyl)-[1,2,4]triazolo[1,5-a]pyrazin-6-yl)-5H-pyrrolo[2,3-d]pyrimidin-6(7H)-one]",113
7,"CC1(c2nnc(C(F)F)o2)C(=O)Nc2nc(-c3cn4ncnc4c(CCCC(F)(F)F)n3)nc(N)c21 (stereo not drawn) [Example 100A, 4-amino-5-(5-(difluoromethyl)-1,3,4-oxadiazol-2-yl)-5-methyl-2-(8-(4,4,4-trifluorobutyl)-[1,2,4]triazolo[1,5-a]pyrazin-6-yl)-5H-pyrrolo[2,3-d]pyrimidin-6(7H)-one]",184
8,"CC1(c2nnc(C(F)(F)F)o2)C(=O)Nc2nc(-c3cn4ncnc4c(CCCC(F)(F)F)n3)nc(N)c21 (stereo not drawn) [Example 101A, 4-amino-5-methyl-2-(8-(4,4,4-trifluorobutyl)-[1,2,4]triazolo[1,5-a]pyrazin-6-yl)-5-(5-(trifluoromethyl)-1,3,4-oxadiazol-2-yl)-5H-pyrrolo[2,3-d]pyrimidin-6(7H)-one]",154
9,"CCCCc1nc(-c2nc(N)c3c(n2)NC(=O)C3(C)c2nnc(C(F)(F)F)o2)cn2ncnc12 (stereo not drawn) [Example 102A, 4-amino-2-(8-butyl-[1,2,4]triazolo[1,5-a]pyrazin-6-yl)-5-methyl-5-(5-(trifluoromethyl)-1,3,4-oxadiazol-2-yl)-5H-pyrrolo[2,3-d]pyrimidin-6(7H)-one]",132
